Assay results reported in PubChem BioAssay (NCI).
Where “and” joins values, the source holds several entries; their conditions need not be identical. Equal values may be shown once.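 Step 1: Grow cells in 96-well plates. Step 2: Expose to compound for 48 hours at 5 concentrations. Step 3: Interpolate endpoints linearly; if unreached, use highest concentration. GI50 is the concentration that inhibits growth by half. TGI: total growth inhibition.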 Calls of active or inactive are those of the source. Cut-off read from the data, not from the text of the source: active = GI50 below about 0.43 µM; inactive = the rest.

Key:
Assay in all cases: DTP human tumour cell line panel, 48 h
SNB-19 CNS = system: SNB-19 CNS
ACHN renal = system: ACHN renal
PC-3 prostate = system: PC-3 prostate
CCRF-CEM leukemia = system: CCRF-CEM leukemia
SNB-75 CNS = system: SNB-75 CNS
SF-539 CNS = system: SF-539 CNS
SW-620 colon = system: SW-620 colon
A498 renal = system: A498 renal
MCF7 breast = system: MCF7 breast

Compound	TGI (SNB-19 CNS) [µM]	TGI (ACHN renal) [µM]	TGI (PC-3 prostate) [µM]	TGI (CCRF-CEM leukemia) [µM]	TGI (SNB-75 CNS) [µM]	TGI (SF-539 CNS) [µM]	TGI (SW-620 colon) [µM]	TGI (A498 renal)	TGI (MCF7 breast) [µM]	GI50 (SNB-19 CNS)	GI50 (A498 renal) [µM]	outcome (SF-539 CNS)
C=C1c2nc3ccccc3n2C=C(c2ccc(Cl)cc2)N1c1ccc(OC)cc1	12.7	13.5	45.5	> 100	7.13	19.2	> 100	> 100 µM	31.8	–	–	–
CCCSc1nc(-c2ccc(OC)cc2)c(C#N)c(=O)n1C1OC(COC(C)=O)C(OC(C)=O)C(OC(C)=O)C1OC(C)=O (stereo unspecified)	> 100	> 100	–	> 100	> 100	> 100	–	> 100 µM and 78.2 µM	–	> 100 µM and 45.4 µM	20.9	–
CC(=O)OC1C(COC(=O)c2ccccc2)OC(Nc2ncc(-c3ccc(Br)cc3)s2)C(OC(=O)c2ccccc2)C1OC(=O)c1ccccc1 (stereo unspecified)	> 100	> 100	> 100	–	> 100	–	> 100	–	> 100	–	–	–
CCOC(=O)C1CCC(=O)N1C(=O)c1ccccc1 (stereo unspecified)	> 100	> 100	> 100	> 100	–	> 100	> 100	> 100 µM	> 100	–	–	–
COc1cc2c(cc1Cc1c(F)cccc1Cl)nc(-c1c(F)cccc1Cl)n2Cc1c(F)cccc1Cl	> 100	> 100	> 100	> 100	70.4	60.1	–	84 µM	> 100	–	–	–
CSc1n[nH]c(N)c1C(=O)Nc1ccccc1	> 100	–	> 100	> 100	> 100	> 100	> 100	> 100 µM	> 100	–	–	–
CO[C@@H]1O[C@H](C(=O)c2ccccc2)[C@H]2OC(C)(C)O[C@@H]12	> 100	–	> 100	> 100	> 100	> 100	> 100	> 100 µM	> 100	–	–	–
N#Cc1c(-c2ccccc2)cc(-c2ccc(Cl)cc2)[nH]c1=S	> 100	> 100	> 100	86	> 100	–	> 100	63.5 µM	53.1	–	–	–
O=c1cc(-c2cc(O)c(O)c(-c3c(O)cc4oc(-c5ccc(O)c(O)c5)cc(=O)c4c3O)c2)oc2cc(O)cc(O)c12	–	–	> 25	> 25	> 25	> 25	> 25	> 25 µM	> 25	–	–	–
Cc1c2c(OCC3CCCCO3)nn(C)c(=O)c2c(C)n1-c1ccccc1 (stereo unspecified)	46.8	31.1	36	–	32	37.2	–	28.3 µM	30.3	–	–	–
CCCCCCCCCc1nn2c(Cc3ccccc3)nnc2s1	36.1	40	51	–	65.4	33.4	33.5	34.2 µM	73.6	–	–	–
CN(C)CCC(=O)/C=C\c1ccccc1	> 100	32.5	–	25	> 100	30.7	35.8	39.5 µM	–	–	–	–
O=c1[nH]c(=O)n(C2CC(O)C(CO)O2)cc1OCc1ccccc1 (stereo unspecified)	> 100	> 100	> 100	> 100	> 100	–	–	–	> 100	–	–	–
O=C(N/N=C/c1ccc(Br)cc1)N/N=C/c1ccc(Br)cc1	16.6	20.8	> 100	31	–	–	30.7	–	> 100	–	–	–
COc1cc2c(cc1OC)-c1cc3ccccc3c(=O)n1CC2	> 100	> 100	40.6	> 100	92	41.9	> 100	–	> 100	–	–	–
CC(=O)OCc1c(O)c2c(c(O)c1COC(C)=O)C(=O)C=CC2=O	–	21.8	–	13.7	33.2	35.7	14.3	34.7 µM	–	–	–	–
COc1ccc(COCC[C@H](C)OC2OC(CO[Si](C)(C)C(C)(C)C)C(OC(=O)CCCN=[N+]=[N-])C(OC(=O)CCCN=[N+]=[N-])C2OC(=O)CCCN=[N+]=[N-])cc1 (stereo partly specified)	–	–	> 100	> 100	59.9	> 100	> 100	> 100 µM	> 100	–	–	–
CCOC(=O)C#Cc1ccccc1	> 100	> 100	31.3	12.4	–	19.3	31.2	75.3 µM	75.2	–	–	–
COc1nc(C#CC(C)(C)C)nc(OC)n1	> 100	> 100	> 100	–	> 100	83.1	73.3	> 100 µM	89.5	–	–	–
CC12CCCC3(CC(=O)C(C)(C)C3C(=O)C1)C2 (stereo unspecified)	> 100	> 100	> 100	> 100	> 100	–	> 100	–	> 100	–	–	–
O=C(c1ccncc1)C1C(=O)c2ccccc2C1C1(O)c2ccccc2CC1C(O)c1ccncc1 (stereo unspecified)	> 100	> 100	–	–	> 100	> 100	> 100	> 100 µM	> 100	–	–	–
CCOP(=O)(/C=C\n1ccc(N)nc1=O)OCC	> 100	> 100	> 100	> 100	> 100	> 100	> 100	–	> 100	–	–	–
CN(C)CCNC(=O)c1cccc2nc(-c3ccccc3)oc12	> 79.8	–	–	> 100	> 100	> 100	> 100	> 94.3 µM	28.2	–	–	–
COc1ccc(-c2cc(-c3ccccc3)[nH]c(=S)c2C#N)cc1	> 100	> 100	> 100	> 100	88.1	–	> 100	60.2 µM	> 100	–	–	–
CC(C(=O)O)C(C)(O)C(=O)O (stereo unspecified)	> 100	–	> 100	> 100	> 100	> 100	> 100	> 100 µM	> 100	–	–	–
O=c1[nH]c(Nc2cccc(CO)c2)nc2nc[nH]c12	> 100	> 100	> 100	> 100	> 100	> 100	> 100	–	> 100	–	–	–
c1c2c(cc(-n3nnc4c3CCCCCC4)c1-n1nnc3c1CCCCCC3)CCCCCC2	28.4	20.9	–	27.3	32.1	–	27.4	22.2 µM	–	–	–	inactive
